Where no end group is shown, it is not given here.

From patent US12589064B2, “Trolox-peptide conjugate and use thereof” (Caregen Co., Ltd., priority 2019, dated 2026) come the findings set out here.

The subject of one test is Bcl-2. The test can be described thus: Expression of Bcl-2 protein involving cell death in HFDPC (western blot). It counts as cell-based, human. The settings on record: 50 μM, 24 hours; FIG. 10. As for the experimental part:
(§1) HFDPCs were dispensed by 3×10^5 in each well of a 6-well plate and cultivated overnight. The medium of the cultivated cells was replaced with a serum-free medium, treatment with Trolox of 50 μM, a Trolox-peptide (SEQ ID NO: 2) conjugate of 50 μM, or a Trolox-peptide (SEQ ID NO: 3) conjugate of 50 μM, was performed for each, and additional cultivation was performed for 24 hours. Then, protein expression change was confirmed by performing western blot using a specific antibody to Bcl-2 and Bax proteins (Santacruz biotechnology, USA).

The test system of a further test is HaCaT human keratinocyte. The test can be described thus: Cell proliferation of HaCaT human keratinocyte (MTT). Conditions: 0.5 μM, 5 μM or 50 μM, serum-free medium, 3 days, FIG. 5. In kind it is cell-based. As for the experimental part: (§2) Human hair follicle dermal papilla cells (HFDPC) and HaCaT which is human keratinocyte were dispensed by 2×10^3 in each well of a 96-well plate and cultivated overnight. The medium of the cultivated cells was replaced with a serum-free medium, and treatment with Trolox-peptide conjugates of 0.5 μM, 5 μM or 50 μM were performed, and additional cultivation was performed for 3 days. Then, in order to confirm the proliferation of the cells, 4 mg/ml of 3-(4,5-dimethylthiazol-2-yl)-2,5-diphenyltetrazolium bromide (MTT) was put to the wells by 100 μl each and reacted for 4 hours. Formazan thus produced was treated with DMSO and dissolved, and light absorbance at 560 nm was measured using a microplate reader. In this case, as a positive control, 1 μM of IGF-1 or EGF, which is known as a growth factor promoting the proliferation of HFDPC and HaCaT cells was used, and as a comparison group, single compounds of Trolox and a peptide having the amino acid sequences of SEQ ID NO: 1 to SEQ ID NO: 3, having the same amounts as the Trolox-peptide conjugate of the present invention, were used.

The subject of test [1] is Human hair follicle dermal papilla cells (HFDPC). The test can be described thus: Cell proliferation of HFDPC (MTT). It counts as cell-based. The settings on record: 0.5 μM, 5 μM or 50 μM, serum-free medium, 3 days, FIG. 4. As for the experimental part: as §2
Another test deals with Bax. In words: Expression of Bax protein involving cell death in HFDPC (western blot). It counts as cell-based, human. The settings on record: 50 μM, 24 hours; FIG. 10. How it is done:
as §1
A general note: A western blot detects proteins with antibodies after separation by electrophoresis.

The subject of another test is P-smad 1/5/8 protein. The test can be described thus: BMP2 cell signal transduction: P-smad 1/5/8 in HFDPC (western blot). It counts as cell-based, human. The settings on record: 50 μM, 50 ng/μl BMP-2, 15 minutes; FIG. 13. How it is done: HFDPCs were dispensed by 3×10^5 in each well of a 6-well plate and cultivated overnight. The medium of the cultivated cells was replaced with a serum-free medium, and the experiments below were performed.
The HFDPC cells were treated with 50 ng/μl of BMP-2 and a Trolox-peptide (SEQ ID NO: 1) conjugate of 5 μM or 50 μM, and additionally cultivated for 15 minutes. Then, western blot was performed using a specific […] to a P-smad 1/5/8 protein which is a subprotein of which expression is controlled by BMP2 cell signal transduction (Cell signaling, USA), and the expression change of a protein was confirmed.

For the molecule `Cc1c(C)c2c(c(C)c1O)CCC(C)(C(=O)O)O2` (centres unmarked) [Trolox, 6-hydroxy-2,5,7,8-tetramethylchromane-2-carboxylic acid], the “expression of Bcl-2” value in the test on Bcl-2 was “no change”. In addition, the “cell proliferation of HaCaT” value in the test with HaCaT human keratinocyte was “rarely showed cell proliferation effects”. Moreover, in test [1], the “cell proliferation of HFDPC” value is listed as “rarely showed cell proliferation effects”. Further, the “expression of Bax” value in the test with Bax is “increased”.

On to “Trolox-peptide (SEQ ID NO: 1) conjugate: Trolox chemically bonded to the peptide Glu-Leu-Ile-Glu-His-Gly-Gly-Gly-Arg-Pro-Ala-Asp (SEQ ID NO: 1) (ELIEHGGGRPAD; not fully specified (N-terminus); printed as Glu-Leu-Ile-Glu-His-Gly-Gly-Gly-Arg-Pro-Ala-Asp; also: Trolox chemically bonded, site not given here)”, for which the “level of expression of the P-smad 1/5/8 protein increased by the treatment with BMP2” value in the test with P-smad 1/5/8 protein is listed as “reduced”.
